Columns and labels:
[1] = photostability under 635 nm laser irradiation; format: physicochemical; settings: 30 min, 20 mW/cm^2, FIG. 9
Experimental: FIG. 9 is a comparison diagram of photostabilities of the hypocrellin derivative prepared in the present invention and a commercial photosensitizer. […] However, in the same condition, after being irradiated with a 635 nm laser for 30 min at a light intensity of 20 mW/cm^2, maximum absorption performance of the commercial porphin photosensitizer Ce6 is decreased by 30% (curve c); and an absorption spectrum of the commercial hematoporphyrin photosensitizer HpD is decreased more, reaching about 50% (curve d). Therefore, in the same condition, the hypocrellin derivative prepared in the present invention has a better photostability than the commercial photosensitizers.

[2] = absorption spectrum (maximum absorption wavelength, molar extinction coefficient); format: physicochemical
[3] = tested on: Hela cells; assay: photo-cytotoxicity experiment (MTT, 635 nm laser); format: cell-based
Experimental: Photo-cytotoxicity experiment on cell: cultured Hela cells were digested and pipetted with 0.25% trypsin and to prepare a single-cell suspension, the number of cells was adjusted to about 2×10^4 per milliliter, and 200 uL of the suspension was seeded in a well of a 96-well culture plate, which is placed in a 37° C. incubator containing 5% CO2 for cultivation. After the cells adhere to the wall, a supernatant culture solution was discarded, and photosensitizers of different concentrations, that is, the hematoporphyrin derivative HpD, the hypocrellin B HB, or HB-1c-PEG6 synthesized in example 3, were added in a strictly lucifugous condition in accordance with experimental designs, and the culture plate was placed in the 37° C. incubator containing 5% CO2 for further cultivation and incubation for 1 hour. Then, a semiconductor laser with a wavelength of 635 nm was used for irradiation, a power density was adjusted to 20 mW/cm^2, light beams were evenly and vertically applied onto the 96-well culture plate, and an irradiation time was 1000 S. In addition, each 96-well culture plate is provided with a blank group, and 6 holes were provided for in each condition. After irradiation, the culture plate was placed in the 37° C. incubator containing 5% CO2 for further cultivation and incubation for 24 hours, and then a cellular survival rate was measured. The cellular survival rate was measured by means of the MTT method. 20 uL of MTT was added to each well, wherein the MTT is MTT prepared with PBS and having a concentration of 5 mg/ml. The culture plate was placed in the 37° C. incubator containing 5% CO2 for further cultivation for 4 hours, after which the cultivation was terminated. A supernatant in the well was extracted and discarded carefully. Then, 150 uL of dimethyl sulfoxide (DMSO) was added to each well, and the culture plate was shaken by using a micro shaker for 10 minutes to fully dissolve a purple crystal substance. A wavelength of 570 nm was selected to measure an optical density value (i.e., OD value) of each well on a microplate reader, and the cellular survival rate was calculated in accordance with the following formula: cellular survival rate=OD value of an experimental group/OD value of a blank group×100%.

[4] = tested on: Hela cells; assay: dark cytotoxicity experiment (MTT)
Experimental: Dark cytotoxicity experiment: cultured Hela cells were digested with 0.25% trypsin and pipetted to prepare a single-cell suspension, the number of cells was adjusted to about 2×10^4 per milliliter, and 200 uL of the suspension was seeded in a well of a 96-well culture plate, which is placed in a 37° C. incubator containing 5% CO2 for cultivation. […] A cellular survival rate was measured by means of the MTT method. 20 uL of MTT was added to each well, wherein the MTT is MTT prepared with PBS and having a concentration of 5 mg/ml. The culture plate was placed in the 37° C. incubator containing 5% CO2 for further cultivation for 4 hours, after which the cultivation was terminated. A supernatant in the well was extracted and discarded carefully. Then, 150 uL of dimethyl sulfoxide was added to each well, and the culture plate was shaken by using a micro shaker for 10 minutes to fully dissolve a purple crystal substance. A wavelength of 570 nm was selected to measure an optical density value (i.e., OD value) of each well on a microplate reader, and the cellular survival rate was calculated in accordance with the following formula: cellular survival rate=OD value of an experimental group/OD value of a blank group×100%.

[5] = singlet oxygen efficiency test, reference rose bengal; format: physicochemical
[6] = water solubility in normal saline; format: physicochemical; settings: per milliliter of normal saline
Experimental: Most of photosensitizer molecules disclosed in this patent contain a large number of hydrophilic groups, such as a polyethylene glycol chain, a quaternary ammonium salt, a carboxyl group, and a sulfonic acid group, etc., making the photosensitizer molecules have very high water solubility in a physiological condition; and experiments indicate that each milliliter of normal saline or glucose injection can dissolve more than 5 mg of such the photosensitizer molecules, presenting excellent water solubility. Therefore, the photosensitive drug can be well transported in blood vessels during intravenous injection, without causing a vascular blockage. HB-1c-C2-N+ prepared in example 4 contains two quaternary ammonium salts, and each milliliter of normal saline can dissolve more than 20 mg of photosensitizer molecules; HC-1c-PEG6 prepared in example 6 contains two 6-PEG chains, and each milliliter of normal saline can dissolve more than 20 mg of photosensitizer molecules; HB-8c prepared in example 19 contains two carboxyl groups, and each milliliter of normal saline can dissolve more than 10 mg of photosensitizer molecules; HB-13c prepared in example 35 contains two carboxyl groups, and each milliliter of normal saline can dissolve more than 10 mg of photosensitizer molecules; and HB-13c-PEG8 prepared in example 37 contains two 8-PEG chains, and each milliliter of normal saline can dissolve more than 20 mg of photosensitizer molecules. These photosensitizer molecules all present excellent water solubility.

[7] = pH stability of absorption spectrum; format: physicochemical; settings: pH range of 6.2-8.0, FIG. 8
Text: Therefore, the hypocrellin derivative prepared in the present invention has a better pH stability than the commercial hematoporphyrin HpD in the pH range of 6.2-8.0.

[8] = 160 nM, 635 nm laser, FIG. 12(b)
[9] = 240 nM, 635 nm red light, FIG. 16(b)
[10] = 200 nM, 635 nm light, FIG. 14(b)
[11] = 240 nM, 635 nm light, FIG. 15(b)

Compound: C=Cc1c(C)c2cc3nc(c(CC(=O)O)c4[nH]c(cc5nc(cc1[nH]2)C(C)=C5CC)c(C)c4C(=O)O)[C@@H](CCC(=O)O)[C@@H]3C [Ce6, reference compound]
- decrease of absorption intensity at the maximum wavelength [1]: 30%
- maximum absorption wavelength [2]: 650 nm
- molar extinction coefficient [2]: less than 20000 M^−1cm^−1

Compound: COc1c(O)c2c(=O)cc(OC)c3c4c(OC)cc(=O)c5c(O)c(OC)c6c(c(c1CC(C)=C6C(C)=O)c23)c54 [HB, hypocrellin B]
- maximum absorption wavelength [2]: 450 nm
- Hela cells killed [3, 8]: about 30%
- Hela cells killed ([3]; 160 nM, 635 nm laser, FIG. 12(b), listed as hypocrellin B): about 20%
- Hela cells killed ([3]; 160 nM, red light, FIG. 17(b)): 30%
- Hela cells killed ([3]; 200 nM, red light, FIG. 18(b)): 60%
- Hela cells killed [3, 9]: 30%

Compound: COCCOCCOCCOCCOCCOCCOCCC(=O)OCCOCCNc1c2c3c4c(c(OC)c(=O)c5c(O)cc(OC)c(c6c(OC)cc(NCCOCCOC(=O)CCOCCOCCOCCOCCOCCOCCOC)c(c1=O)c63)c54)C(C(C)=O)C(C)=C2 (stereo not shown) [HB-1c-PEG6]
- cytotoxicity (dark toxicity) ([4]; 10 μM, incubated half hour, FIG. 12(a)): basically non-cytotoxic
- maximum absorption wavelength [2]: 628 nm
- molar extinction coefficient [2]: 34,500 M^−1cm^−1
- singlet oxygen yield [5]: 34%
- Hela cells killed [3, 8]: more than 90%

Compound: COc1c(O)c2c(=O)cc(OC)c3c4c(OC)cc(=O)c5c(NCCCC(=O)O)c(NCCCC(=O)O)c6c(c(c1C(C(C)=O)C(C)=C6)c23)c54 (stereo not shown) [HB-8a]
- maximum absorption wavelength [2]: 622 nm
- molar extinction coefficient [2]: 27,500 M^−1cm^−1
- amount dissolved by each milliliter of normal saline [6]: more than 5 mg
- singlet oxygen yield [5]: 25%

Compound: COc1c2c3c4c(c(NCCCC(=O)O)c(=O)c5c(NCCCC(=O)O)cc(OC)c(c6c(OC)cc(O)c(c1=O)c63)c54)C=C(C)C2C(C)=O (stereo not shown) [HB-8c]
- maximum absorption wavelength [2]: 620 nm
- molar extinction coefficient [2]: 29,500 M^−1cm^−1
- amount dissolved by each milliliter of normal saline [6]: more than 10 mg
- singlet oxygen yield [5]: 30%

Compound: COc1c2c3c4c(c(NCC5CCC(C(=O)O)CC5)c(=O)c5c(NCC6CCC(C(=O)O)CC6)cc(OC)c(c6c(OC)cc(O)c(c1=O)c63)c54)C=C(C)C2C(C)=O (stereo not shown) [HB-13c]
- maximum absorption wavelength [2]: 621 nm
- molar extinction coefficient [2]: 29,500 M^−1cm^−1
- amount dissolved by each milliliter of normal saline [6]: more than 10 mg
- singlet oxygen yield [5]: 30%
- Hela cells killed [3, 9]: more than 85%

Compound: COc1c2c3c4c(c(OC)c(=O)c5c(O)cc(OC)c(c6c(OC)cc(O)c(c1=O)c63)c54)CC(C)=C2 [HC, deacetyl hypocrellin]
- Hela cells killed ([3]; 140 nM, 635 nm light, FIG. 13(b)): 40%
- Hela cells killed [3, 10]: 50%
- Hela cells killed [3, 11]: 50%

Compound: COc1c2c3c4c(c(NCCOCCO)c(=O)c5c(NCCOCCO)cc(OC)c(c6c(OC)cc(O)c(c1=O)c63)c54)C=C(C)C2 [HC-1c]
- pH stability, change in absorption spectrum [7]: no obvious change
- molar extinction coefficient [2]: 30,000 M^−1cm^−1
- singlet oxygen yield [5]: 38%
- singlet oxygen efficiencies ([5]; comparison with reference rose bengal RB, FIG. 7): 0.38

Compound: COc1c2c3c4c(c(NCCO)c(=O)c5c(NCCO)cc(OC)c(c6c(OC)cc(O)c(c1=O)c63)c54)C=C(C)C2 [HC-2c]
- decrease of absorption intensity at the maximum wavelength [1]: less than 10%
- maximum absorption wavelength [2]: 636 nm
- molar extinction coefficient [2]: 31,000 M^−1cm^−1
- singlet oxygen yield [5]: 40%

Compound: COCCOCCOCCOCCOCCOCCOCCC(=O)OCCNc1c2c3c4c(c(OC)c(=O)c5c(NCCOC(=O)CCOCCOCCOCCOCCOCCOCCOC)cc(OC)c(c6c(OC)cc(O)c(c1=O)c63)c54)CC(C)=C2 [HC-2d-PEG6]
- decrease of absorption intensity at the maximum wavelength [1]: less than 10%
- maximum absorption wavelength [2]: 624 nm
- molar extinction coefficient [2]: 31,500 M^−1cm^−1
- singlet oxygen yield [5]: 32%

Compound: COCCOCCOCCOCCOCCOCCOC(=O)CCCNc1c2c3c4c(c(OC)c(=O)c5c(O)cc(OC)c(c6c(OC)cc(NCCCC(=O)OCCOCCOCCOCCOCCOCCOC)c(c1=O)c63)c54)CC(C)=C2 [HC-8c-PEG6]
- cytotoxicity when not exposed to light ([4]; dark): almost no cytotoxicity
- maximum absorption wavelength [2]: 632 nm
- molar extinction coefficient [2]: 31,500 M^−1cm^−1
- singlet oxygen yield [5]: 36%
- Hela cells killed [3, 11]: more than 90%

Compound: COc1c2c3c4c(c(NCCCC(=O)O)c(=O)c5c(NCCCC(=O)O)cc(OC)c(c6c(OC)cc(O)c(c1=O)c63)c54)C=C(C)C2 [HC-8c]
- maximum absorption wavelength [2]: 618 nm
- molar extinction coefficient [2]: 28,500 M^−1cm^−1
- singlet oxygen yield [5]: 27%
- Hela cells killed [3, 10]: more than 85%

Compound: COCCOCCOCCOCCOCCOCCOCCOCCOCCNC(=O)C1CCC(CNc2c3c4c5c(c(OC)c(=O)c6c(O)cc(OC)c(c7c(OC)cc(NCC8CCC(C(=O)NCCOCCOCCOCCOCCOCCOCCOCCOCCOC)CC8)c(c2=O)c74)c65)CC(C)=C3)CC1 (stereo not shown) [HC-13c-NH-PEG8]
- maximum absorption wavelength [2]: 630 nm
- molar extinction coefficient [2]: 33,500 M^−1cm^−1
- singlet oxygen yield [5]: 38%
- Hela cells killed ([3]; 200 nM, red light, FIG. 18(b)): more than 85%

Compound: COc1c(O)c2c(=O)cc(OC)c3c4c(OC)cc(=O)c5c(NCS(=O)(=O)O)c(NCCCS(=O)(=O)O)c6c(c(c1CC(C)=C6)c23)c54 [HC-45a]
- maximum absorption wavelength [2]: 613 nm
- molar extinction coefficient [2]: 21,000 M^−1cm^−1
- singlet oxygen yield [5]: 18%

Compound: COc1c(NCS(=O)(=O)O)c2c(=O)cc(OC)c3c4c(OC)cc(=O)c5c(O)c(NCCCS(=O)(=O)O)c6c(c(c1CC(C)=C6)c23)c54 [HC-45b]
- maximum absorption wavelength [2]: 618 nm
- molar extinction coefficient [2]: 21,500 M^−1cm^−1
- singlet oxygen yield [5]: 20%

Compound: COc1c2c3c4c(c(NCCCS(=O)(=O)O)c(=O)c5c(NCS(=O)(=O)O)cc(OC)c(c6c(OC)cc(O)c(c1=O)c63)c54)C=C(C)C2 [HC-45c]
- maximum absorption wavelength [2]: 627 nm
- molar extinction coefficient [2]: 22,000 M^−1cm^−1
- singlet oxygen yield [5]: 21%

Compound: COc1c2c3c4c(c(NCCCS(=O)(=O)O)c(=O)c5c(O)cc(OC)c(c6c(OC)cc(NCS(=O)(=O)O)c(c1=O)c63)c54)C=C(C)C2 [HC-45d]
- maximum absorption wavelength [2]: 624 nm
- molar extinction coefficient [2]: 21,000 M^−1cm^−1
- singlet oxygen yield [5]: 21%

— patent US11439707B2, “Hypocrellin derivative substituted both in a peri-position and in 2-position by amino, preparation method, and application thereof” (priority 2017, dated 2022)
